{"source": "patent US20230233569A1", "about": "(Revolution Medicines, Inc., priority 2020, published 2023)", "key": {"[1]": {"test_system": "P70S6K (Thr389) phosphorylation (mTORC1) in MDA-MB-468 cells", "test": "Cell based AlphaLISA assay, mTOR kinase cellular assay: inhibition of p-P70S6K (T389) in MDA-MB-468 cells", "conditions": "Homo sapiens, read-out: pIC50 for Inhibition of mTORC1 and mTORC2 Substarte Phosphorylation p-P70S6K-(T389) (converted)", "procedure,_shortened": "(§1)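 MDA-MB-468 cells treated with compound at 0.017-1,000 nM for two to four hours at 37° C, then lysed. Phospho-AKT1/2/3 S473, 4EBP1 T37/46 and P70S6K T389 quantified by AlphaLISA SureFire Ultra in duplicate; IC50 from normalized regression with control-based normalization.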"}, "[2]": {"test_system": "AKT1/2/3 (Ser473) phosphorylation (mTORC2) in MDA-MB-468 cells", "test": "Cell based AlphaLISA assay, mTOR kinase cellular assay: inhibition of p-Akt (S473) in MDA-MB-468 cells", "conditions": "Homo sapiens, read-out: pIC50 for Inhibition of mTORC1 and mTORC2 Substarte Phosphorylation p-AKT1/2/3-(S473) (converted)", "procedure,_shortened": "as §1"}, "[3]": {"test_system": "4EBP1 (Thr37/46) phosphorylation (mTORC1) in MDA-MB-468 cells", "test": "Cell based AlphaLISA assay, mTOR kinase cellular assay: inhibition of p-4E-BP1 (T37/46) in MDA-MB-468 cells", "conditions": "Homo sapiens, read-out: pIC50 for Inhibition of mTORC1 and mTORC2 Substarte Phosphorylation p-4E-BP1-(T37/46) (converted)", "procedure,_shortened": "as §1"}}, "data": [{"smiles": "CO[C@H]1C[C@@H]2CC[C@@H](C)[C@@](O)(O2)C(=O)C(=O)N2CCCC[C@H]2C(=O)O[C@H]([C@H](C)C[C@@H]2CC[C@@H](OC(=O)NCCOCCC(=O)NCc3cnc(N4CCN(C(=O)CCOCCN5CCN(c6ncc(C(=O)NCCCCn7nc(-c8cnc9[nH]ccc9c8)c8c(N)ncnc87)cn6)CC5)CC4)nc3)[C@H](OC)C2)CC(=O)[C@H](C)/C=C(\\C)[C@@H](O)[C@@H](OC)C(=O)[C@H](C)C[C@H](C)/C=C/C=C/C=C/1C", "note": "[Example 68]", "values": [{"measurement": "IC50", "setting": "[1]", "value": "≤ 1", "unit": "nM"}, {"measurement": "IC50", "setting": "[2]", "value": "> 1000", "unit": "nM"}, {"measurement": "IC50", "setting": "[3]", "value": "≤ 3.16", "unit": "nM"}]}, {"smiles": "CO[C@H]1C[C@@H]2CC[C@@H](C)[C@@](O)(O2)C(=O)C(=O)N2CCCC[C@H]2C(=O)O[C@H]([C@H](C)C[C@@H]2CC[C@@H](OC(=O)NCCOCCC(=O)NCc3cnc(N4CCN(C(=O)CCOCCN5CCN(c6ncc(C(=O)N7CCc8cc(Cn9nc(-c%10ccc%11oc(N)nc%11c%10)c%10c(N)ncnc%109)ccc8C7)cn6)CC5)CC4)nc3)[C@H](OC)C2)C[C@@H](O)[C@H](C)/C=C(\\C)[C@@H](O)[C@@H](OC)C(=O)[C@H](C)C[C@H](C)/C=C/C=C/C=C/1C", "note": "[Example 69]", "values": [{"measurement": "IC50", "setting": "[1]", "value": "≤ 1", "unit": "nM"}, {"measurement": "IC50", "setting": "[2]", "value": "3.16 to 31.6", "unit": "nM"}, {"measurement": "IC50", "setting": "[3]", "value": "≤ 3.16", "unit": "nM"}]}, {"smiles": "CO[C@H]1C[C@@H]2CC[C@@H](C)[C@@](O)(O2)C(=O)C(=O)N2CCCC[C@H]2C(=O)O[C@H]([C@H](C)C[C@@H]2CC[C@@H](OC(=O)NCCOCCC(=O)NCc3cnc(N4CCN(C(=O)CCOCCN5CCN(c6ncc(C(=O)N7CCc8cc(Cn9nc(-c%10ccc%11oc(N)nc%11c%10)c%10c(N)ncnc%109)ccc8C7)cn6)CC5)CC4)nc3)[C@H](OC)C2)C[C@@H](OC)[C@H](C)/C=C(\\C)[C@@H](O)[C@@H](OC)C(=O)[C@H](C)C[C@H](C)/C=C/C=C/C=C/1C", "note": "[Example 70]", "values": [{"measurement": "IC50", "setting": "[1]", "value": "≤ 1", "unit": "nM"}, {"measurement": "IC50", "setting": "[2]", "value": "31.6 to 1000", "unit": "nM"}, {"measurement": "IC50", "setting": "[3]", "value": "≤ 3.16", "unit": "nM"}]}, {"smiles": "CO[C@H]1C[C@@H]2CC[C@@H](C)[C@@](O)(O2)C(=O)C(=O)N2CCCC[C@H]2C(=O)O[C@H]([C@H](C)C[C@@H]2CC[C@@H](OC(=O)NCCOCCOCCOCCOCCOCCOCCOCCOCC(=O)N3CCc4cc(Cn5nc(-c6ccc7oc(N)nc7c6)c6c(N)ncnc65)ccc4C3)[C@H](OC)C2)CC(=O)[C@H](C)/C=C(\\C)[C@@H](O)[C@@H](OC)C(=O)[C@H](C)C[C@H](C)/C=C/C=C/C=C/1C", "note": "[Example 71]", "values": [{"measurement": "IC50", "setting": "[1]", "value": "≤ 1", "unit": "nM"}, {"measurement": "IC50", "setting": "[2]", "value": "3.16 to 31.6", "unit": "nM"}, {"measurement": "IC50", "setting": "[3]", "value": "≤ 3.16", "unit": "nM"}]}, {"smiles": "CO[C@H]1C[C@@H]2CC[C@@H](C)[C@@](O)(O2)C(=O)C(=O)N2CCCC[C@H]2C(=O)O[C@H]([C@H](C)C[C@@H]2CC[C@@H](OC(=O)NCc3cnc(N4CCN(C(=O)CN(C)CC(=O)NCCOCCOCCC(=O)NCCCCn5nc(-c6ccc7oc(N)nc7c6)c6c(N)ncnc65)CC4)nc3)[C@H](OC)C2)C[C@@H](OC)[C@H](C)/C=C(\\C)[C@@H](O)[C@@H](OC)C(=O)[C@H](C)C[C@H](C)/C=C/C=C/C=C/1C", "note": "[Example 104]", "values": [{"measurement": "IC50", "setting": "[1]", "value": "≤ 1", "unit": "nM"}, {"measurement": "IC50", "setting": "[2]", "value": "> 1000", "unit": "nM"}, {"measurement": "IC50", "setting": "[3]", "value": "≤ 3.16", "unit": "nM"}]}, {"smiles": "CO[C@H]1C[C@@H]2CC[C@@H](C)[C@@](O)(O2)C(=O)C(=O)N2CCCC[C@H]2C(=O)O[C@H]([C@H](C)C[C@@H]2CC[C@@H](OC(=O)N3CCc4nc(N5CCN(c6ncc(C(=O)NCCOCCOCCOCCOCCC(=O)N7CCc8cc(Cn9nc(-c%10ccc%11oc(N)nc%11c%10)c%10c(N)ncnc%109)ccc8C7)cn6)[C@@H](C(=O)O)C5)ncc4C3)[C@H](OC)C2)C[C@@H](OC)[C@H](C)/C=C(\\C)[C@@H](O)[C@@H](OC)C(=O)[C@H](C)C[C@H](C)/C=C/C=C/C=C/1C", "note": "[Example 105]", "values": [{"measurement": "IC50", "setting": "[1]", "value": "≤ 1", "unit": "nM"}, {"measurement": "IC50", "setting": "[2]", "value": "> 1000", "unit": "nM"}, {"measurement": "IC50", "setting": "[3]", "value": "3.16 to 31.6", "unit": "nM"}]}, {"smiles": "CO[C@H]1C[C@@H]2CC[C@@H](C)[C@@](O)(O2)C(=O)C(=O)N2CCCC[C@H]2C(=O)O[C@H]([C@H](C)C[C@@H]2CC[C@@H](OC(=O)NCc3cnc(N4CCN(c5ncc(C(=O)NCCOCCOCCOCCOCCC(=O)N6CCc7cc(Cn8nc(-c9cnc%10[nH]ccc%10c9)c9c(N)ncnc98)ccc7C6)c(N)n5)CC4)nc3)[C@H](OC)C2)CC(=O)[C@H](C)/C=C(\\C)[C@@H](O)[C@@H](OC)C(=O)[C@H](C)C[C@H](C)/C=C/C=C/C=C/1C", "note": "[Example 108]", "values": [{"measurement": "IC50", "setting": "[1]", "value": "1 to 10", "unit": "nM"}, {"measurement": "IC50", "setting": "[2]", "value": "> 1000", "unit": "nM"}, {"measurement": "IC50", "setting": "[3]", "value": "> 1000", "unit": "nM"}]}, {"smiles": "CO[C@H]1C[C@@H]2CC[C@@H](C)[C@@](O)(O2)C(=O)C(=O)N2CCCC[C@H]2C(=O)O[C@H]([C@H](C)C[C@@H]2CC[C@@H](OC(=O)N3CCc4nc(N5CCN(c6ncc(C(=O)NCCOCCOCCOCCOCCC(=O)N7CCc8cc(Cn9nc(-c%10cnc%11[nH]ccc%11c%10)c%10c(N)ncnc%109)ccc8C7)c(N)n6)CC5)ncc4C3)[C@H](OC)C2)CC(=O)[C@H](C)/C=C(\\C)[C@@H](O)[C@@H](OC)C(=O)[C@H](C)C[C@H](C)/C=C/C=C/C=C/1C", "note": "[Example 109]", "values": [{"measurement": "IC50", "setting": "[1]", "value": "10 to 1000", "unit": "nM"}, {"measurement": "IC50", "setting": "[2]", "value": "> 1000", "unit": "nM"}, {"measurement": "IC50", "setting": "[3]", "value": "> 1000", "unit": "nM"}]}, {"smiles": "CO[C@H]1C[C@@H]2CC[C@@H](C)[C@@](O)(O2)C(=O)C(=O)N2CCCC[C@H]2C(=O)O[C@H]([C@H](C)C[C@@H]2CC[C@@H](OC(=O)NCCOCCOCCOCCOCCOCCOCCC(=O)NC3CCN(CC(=O)N4CCc5cc(Cn6nc(-c7ccc8oc(N)nc8c7)c7c(N)ncnc76)ccc5C4)CC3)[C@H](OC)C2)C[C@@H](O)[C@H](C)/C=C(\\C)[C@@H](O)[C@@H](OC)C(=O)[C@H](C)C[C@H](C)/C=C/C=C/C=C/1C", "note": "[Example 112]", "values": [{"measurement": "IC50", "setting": "[1]", "value": "≤ 1", "unit": "nM"}, {"measurement": "IC50", "setting": "[2]", "value": "> 1000", "unit": "nM"}, {"measurement": "IC50", "setting": "[3]", "value": "> 1000", "unit": "nM"}]}, {"smiles": "CO[C@H]1C[C@@H]2CC[C@@H](C)[C@@](O)(O2)C(=O)C(=O)N2CCCC[C@H]2C(=O)O[C@H]([C@H](C)C[C@@H]2CC[C@@H](OC(=O)NCCOCCOCCOCCOCCOCCOCCC(=O)N3CCC(N4CCC(C(=O)N5CCc6cc(Cn7nc(-c8ccc9oc(N)nc9c8)c8c(N)ncnc87)ccc6C5)CC4)CC3)[C@H](OC)C2)C[C@@H](O)[C@H](C)/C=C(\\C)[C@@H](O)[C@@H](OC)C(=O)[C@H](C)C[C@H](C)/C=C/C=C/C=C/1C", "note": "[Example 113]", "values": [{"measurement": "IC50", "setting": "[1]", "value": "≤ 1", "unit": "nM"}, {"measurement": "IC50", "setting": "[2]", "value": "3.16 to 31.6", "unit": "nM"}, {"measurement": "IC50", "setting": "[3]", "value": "≤ 3.16", "unit": "nM"}]}, {"smiles": "CO[C@H]1C[C@@H]2CC[C@@H](C)[C@@](O)(O2)C(=O)C(=O)N2CCCC[C@H]2C(=O)O[C@H]([C@H](C)C[C@@H]2CC[C@@H](OC(=S)NCc3cnc(N4CCN(C(=O)CCOCCN5CCN(c6ncc(C(=O)N7CCc8cc(Cn9nc(-c%10ccc%11oc(N)nc%11c%10)c%10c(N)ncnc%109)ccc8C7)cn6)CC5)CC4)nc3)[C@H](OC)C2)C[C@@H](O)[C@H](C)/C=C(\\C)[C@@H](O)[C@@H](OC)C(=O)[C@H](C)C[C@H](C)/C=C/C=C/C=C/1C", "note": "[Example 117]", "values": [{"measurement": "IC50", "setting": "[1]", "value": "≤ 1", "unit": "nM"}, {"measurement": "IC50", "setting": "[2]", "value": "3.16 to 31.6", "unit": "nM"}, {"measurement": "IC50", "setting": "[3]", "value": "≤ 3.16", "unit": "nM"}]}, {"smiles": "CO[C@H]1C[C@@H]2CC[C@@H](C)[C@@](O)(O2)C(=O)C(=O)N2CCCC[C@H]2C(=O)O[C@H]([C@H](C)C[C@@H]2CC[C@@H](OC(=O)NCc3cnc(N4CCN(C(=O)CCOCCOCCN5CCN(c6ncc(C(=O)N7CCc8cc(Cn9nc(-c%10cnc%11[nH]ccc%11c%10)c%10c(N)ncnc%109)ccc8C7)cn6)CC5)CC4)nc3)[C@H](OC)C2)CC(=O)[C@H](C)/C=C(\\C)[C@@H](O)[C@@H](OC)C(=O)[C@H](C)C[C@H](C)/C=C/C=C/C=C/1C", "note": "[Example 123]", "values": [{"measurement": "IC50", "setting": "[1]", "value": "≤ 1", "unit": "nM"}, {"measurement": "IC50", "setting": "[2]", "value": "31.6 to 1000", "unit": "nM"}, {"measurement": "IC50", "setting": "[3]", "value": "≤ 3.16", "unit": "nM"}]}, {"smiles": "CO[C@H]1C[C@@H]2CC[C@@H](C)[C@@](O)(O2)C(=O)C(=O)N2CCCC[C@H]2C(=O)O[C@H]([C@H](C)C[C@@H]2CC[C@@H](OC(=O)N3CCc4nc(N5CCN(C(=O)CCOCCN6CCN(c7ncc(C(=O)N8CCc9cc(Cn%10nc(-c%11cnc%12[nH]ccc%12c%11)c%11c(N)ncnc%11%10)ccc9C8)cn7)CC6)CC5)ncc4C3)[C@H](OC)C2)CC(=O)[C@H](C)/C=C(\\C)[C@@H](O)[C@@H](OC)C(=O)[C@H](C)C[C@H](C)/C=C/C=C/C=C/1C", "note": "[Example 124]", "values": [{"measurement": "IC50", "setting": "[1]", "value": "≤ 1", "unit": "nM"}, {"measurement": "IC50", "setting": "[2]", "value": "3.16 to 31.6", "unit": "nM"}, {"measurement": "IC50", "setting": "[3]", "value": "≤ 3.16", "unit": "nM"}]}]}
